According to US11111259B2, “Acylsulfonamide derivatives for treating senescence-associated diseases and disorders” (Unity Biotechnology, Inc., priority 2015, dated 2021):

What was measured:
[1] = tested on: IMR-90 SnC (irradiated senescent IMR90 cells); assay: Senolysis assay (CellTiter-Glo viability); format: cell-based, human; conditions: for EC50: Homo sapiens, IMR-90, light or radiation study, 72 h, X-ray irradiated senescent IMR90 cells, viability three days after compound addition; for SI (ratio of EC50 of non-senescent cells to EC50 of senescent cells): IMR90 non-senescent vs senescent cells
Method: IMR90 cells are maintained in DMEM supplemented with 10% FBS. To prepare a senescent population, cells were trypsinized, diluted to 50,000 per mL, and irradiated with 10-15 Gy of X-ray irradiation. Irradiated cells were plated at 5000 cells per well in one third of a 96-well plate and maintained for two weeks prior to the assay. Four days prior to the assay, non-senescent IMR90s were plated at 2500 per well in the second third of the plate. One day prior to the assay, 2500 non-senescent cells were plated in the final third of the plate. Compounds were prepared as a 200×DMSO dilution series then diluted to 1× in media immediately before adding to cells. Three days after compound addition, cell viability was measured using CellTiter-Glo reagent from Promega. Viability was calculated relative to a DMSO control and EC50 values are calculated in Prism GraphPad. […] The selectivity (SI) of the compounds described herein is a ratio of the EC50 of non-senescent cells to the EC50 of senescent cells. The SI of the compounds described herein is 10 or above for “A” selectivity, between 2 and 10 for “B” selectivity or 2 or less for “C” selectivity.

BCL-xL = BCL-xL (Homo sapiens, UniProt Q07817); assay: BCL-binding assay (AlphaLISA competition, BAD peptide); conditions: 6xHis BCL-xL with biotinylated BAD peptide, 24 hr incubation
BCL-xL, sequence (Q07817 whole entry, species assumed): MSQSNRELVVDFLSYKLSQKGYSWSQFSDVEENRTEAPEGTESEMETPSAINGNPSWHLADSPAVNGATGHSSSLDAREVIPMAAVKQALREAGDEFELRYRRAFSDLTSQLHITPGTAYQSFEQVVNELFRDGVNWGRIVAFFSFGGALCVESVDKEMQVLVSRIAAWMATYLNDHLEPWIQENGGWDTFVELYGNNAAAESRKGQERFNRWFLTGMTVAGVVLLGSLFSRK
Method: (§1) Compounds were prepared as 400× DMSO stock solutions in a 1:4 dilution series then diluted […] in assay buffer (25 mM HEPES pH 7.5, 100 mM NaCl, 0.1% BSA, 0.005% Tween) immediately before use. Aliquots of 400 nM 6xHis-tagged BCL-xL, BCL-2, and BCL-w were thawed on ice and diluted to 0.4 (BCL-XL) or 0.8 (BCL-W and 2) nM in assay buffer. Aliquots of biotinylated BIM and BAD peptides were diluted in assay buffer to 120 and 60 nM respectively. Ten microliters of biotinylated peptide were added to wells of a 96-well PCR plate, followed by ten microliters of inhibitor, then ten microliters of BCL protein, BCL-XL with BAD and BCL-W/2 with BIM. The plates were sealed and incubated at room temperature. After 24 hr, 0.16 μg Anti-His conjugated AlphaLISA acceptor beads were added in 5 μL assay buffer. After one hour at room temperature, 0.16 μg AlphaScreen streptavidin donor beads were added in 5 μL assay buffer and plates were incubated an additional 30 min in the dark. Two 17 μL aliquots of each reaction were plated in a Perkin Elmer 384-well proxiplate, and plates were scanned for using a Perkin Elmer Enspire plate reader. Kd values were calculated in Prism Graph Pad using a one site competitive binding model and previously determined Kd values for each protein peptide pair. […]

BCL-2 = BCL-2 (Homo sapiens, UniProt P10415); assay: BCL-binding assay (AlphaLISA competition, BIM peptide); conditions: 6xHis BCL-2 with biotinylated BIM peptide, 24 hr incubation
BCL-2, sequence (P10415 whole entry, species assumed): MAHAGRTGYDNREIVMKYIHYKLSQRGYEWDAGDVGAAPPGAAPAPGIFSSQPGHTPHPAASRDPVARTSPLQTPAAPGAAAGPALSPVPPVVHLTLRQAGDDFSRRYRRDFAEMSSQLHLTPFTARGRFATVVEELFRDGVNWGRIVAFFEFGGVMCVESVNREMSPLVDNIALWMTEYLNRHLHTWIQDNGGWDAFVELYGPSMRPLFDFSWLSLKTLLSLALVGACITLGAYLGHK
Method: as §1

BCL-w = target: T1, BCL-w (Homo sapiens, UniProt Q92843); assay: as above; conditions: 6xHis BCL-w with biotinylated BIM peptide, 24 hr incubation
T1 sequence (Q92843 1-193): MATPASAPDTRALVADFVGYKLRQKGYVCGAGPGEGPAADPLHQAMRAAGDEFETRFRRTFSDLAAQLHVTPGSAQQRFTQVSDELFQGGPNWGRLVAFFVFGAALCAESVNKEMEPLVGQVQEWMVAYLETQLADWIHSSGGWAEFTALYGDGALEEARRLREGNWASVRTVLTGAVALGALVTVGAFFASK
Method: as §1

For CC1(C)CCC(c2ccc(Cl)cc2)=C(CN2CCN(c3ccc(C(=O)NS(=O)(=O)c4ccc(N[C@H](CCN5CCN(CP(=O)(O)O)CC5)CSc5ccccc5)c(S(=O)(=O)C(F)(F)F)c4)cc3)CC2)C1 [Compound 7], the EC50 [1] was > 10000 nM, the “SI (ratio of EC50 of non-senescent cells to EC50 of senescent cells)” value [1] was “B (between 2 and 10)” and the Kd (BCL-xL) was < 1 nM. The Kd (BCL-2) was < 1 nM and the Kd (BCL-w) was 10 to 50 nM.
CC(C)OP(=O)(CCCN1CCN(CC[C@H](CSc2ccccc2)Nc2ccc(S(=O)(=O)NC(=O)c3ccc(N4CCN(CC5=C(c6ccc(Cl)cc6)CCC(C)(C)C5)CC4)cc3)cc2S(=O)(=O)C(F)(F)F)CC1)OC(C)C [Compound 27] was tested, and the EC50 [1] was > 10000 nM, the “SI (ratio of EC50 of non-senescent cells to EC50 of senescent cells)” value [1] was “C (2 or less)” and the Kd (BCL-xL) was < 1 nM. The Kd (BCL-2) was < 1 nM and the Kd (BCL-w) was 1 to 10 nM.
With CCOP(=O)(O)CCN(C)CC[C@H](CSc1ccccc1)Nc1ccc(S(=O)(=O)NC(=O)c2ccc(N3CCN(CC4=C(c5ccc(Cl)cc5)CCC(C)(C)C4)CC3)cc2)cc1S(=O)(=O)C(F)(F)F [Compound 11] the EC50 [1] was > 10000 nM, the “SI (ratio of EC50 of non-senescent cells to EC50 of senescent cells)” value [1] was “C (2 or less)” and the Kd (BCL-xL) was < 1 nM. For the same compound, the Kd (BCL-2) was < 1 nM and the Kd (BCL-w) was 1 to 10 nM.
CCOP(=O)(C=C1CCN(CC[C@H](CSc2ccccc2)Nc2ccc(S(=O)(=O)NC(=O)c3ccc(N4CCN(CC5=C(c6ccc(Cl)cc6)CCC(C)(C)C5)CC4)cc3)cc2S(=O)(=O)C(F)(F)F)CC1)OCC [Compound 41, Diethyl (R)-((1-(3-((4-(N-(4-(4-((4′-chloro-4,4-dimethyl-3,4,5,6-tetrahydro-[1,1′-biphenyl]-2-yl)methyl)piperazin-1-yl)benzoyl)sulfamoyl)-2-((trifluoromethyl)sulfonyl)phenyl)amino)-4-(phenylthio)butyl)piperidin-4-ylidene)methyl)phosphonate] was tested, and the EC50 [1] was < 1000 nM, the “SI (ratio of EC50 of non-senescent cells to EC50 of senescent cells)” value [1] was “A (10 or above)” and the Kd (BCL-xL) was < 1 nM. For the same compound, the Kd (BCL-2) was < 1 nM and the Kd (BCL-w) was 1 to 10 nM.
In the case of CCOP(=O)(CN1CCN(CC[C@H](CSc2ccccc2)N(c2ccc(S(=O)(=O)NC(=O)c3ccc(N4CCN(CC5=C(c6ccc(Cl)cc6)CCC(C)(C)C5)CC4)cc3)cc2S(=O)(=O)C(F)(F)F)S(C)(=O)=O)CC1)OCC [Compound 29], the EC50 [1] is reported as 1000 to 10000 nM, the “SI (ratio of EC50 of non-senescent cells to EC50 of senescent cells)” value [1] is reported as “C (2 or less)” and the Kd (BCL-xL) is reported as 10 to 50 nM. For the same compound, the Kd (BCL-2) was 10 to 50 nM and the Kd (BCL-w) was > 50 nM.
In the case of CCOP(=O)(CCCN1CCN(CC[C@H](CSc2ccccc2)Nc2ccc(S(=O)(=O)NC(=O)c3ccc(N4CCN(CC5=C(c6ccc(Cl)cc6)CCC(C)(C)C5)CC4)cc3)cc2S(=O)(=O)C(F)(F)F)CC1)OCOC(=O)C(C)(C)C (stereo partly shown) [Compound 33], the EC50 [1] is reported as > 10000 nM, the “SI (ratio of EC50 of non-senescent cells to EC50 of senescent cells)” value [1] is reported as “B (between 2 and 10)” and the Kd (BCL-xL) is reported as < 1 nM. For the same compound, the Kd (BCL-2) was < 1 nM and the Kd (BCL-w) was 1 to 10 nM.
In the case of CCOP(=O)(CN1CCN(CC[C@H](CSc2ccccc2)Nc2ccc(S(=O)(=O)NC(=O)c3ccc(N4CCN(CC5=C(c6ccc(Cl)cc6)CCC(C)(C)C5)CC4)cc3)cc2S(=O)(=O)C(F)(F)F)CC1)OCOC(=O)C(C)(C)C (stereo partly drawn) [Compound 28, (((4-((R)-3-((4-(N-(4-(4-((4′-Chloro-4,4-dimethyl-3,4,5,6-tetrahydro-[1,1′-biphenyl]-2-yl)methyl)piperazin-1-yl)benzoyl)sulfamoyl)-2-((trifluoromethyl)sulfonyl)phenyl)amino)-4-(phenylthio)butyl)piperazin-1-yl)methyl)(ethoxy)phosphoryl)oxy)methyl pivalate], the EC50 [1] is reported as < 1000 nM, the “SI (ratio of EC50 of non-senescent cells to EC50 of senescent cells)” value [1] is reported as “B (between 2 and 10)” and the Kd (BCL-xL) is reported as 1 to 10 nM. For the same compound, the Kd (BCL-2) was < 1 nM and the Kd (BCL-w) was 10 to 50 nM.
In the case of CCOP(=O)(CCCN1CCN(CC[C@H](CSc2ccccc2)Nc2ccc(S(=O)(=O)NC(=O)c3ccc(N4CCN(CC5=C(c6ccc(Cl)cc6)CCC(C)(C)C5)CC4)cc3)cc2S(=O)(=O)C(F)(F)F)CC1)OCC [Compound 23], the EC50 [1] is reported as < 1000 nM, the “SI (ratio of EC50 of non-senescent cells to EC50 of senescent cells)” value [1] is reported as “A (10 or above)” and the Kd (BCL-xL) is reported as < 1 nM. For the same compound, the Kd (BCL-2) was < 1 nM and the Kd (BCL-w) was 1 to 10 nM.
CCOP(=O)(CC1CCN(CC[C@H](CSc2ccccc2)Nc2ccc(S(=O)(=O)NC(=O)c3ccc(N4CCN(CC5=C(c6ccc(Cl)cc6)CCC(C)(C)C5)CC4)cc3)cc2S(=O)(=O)C(F)(F)F)CC1)OCOC(=O)C(C)(C)C (stereo partly drawn) [Compound 48, (((1-((R)-3-((4-(N-(4-(4-((4′-chloro-4,4-dimethyl-3,4,5,6-tetrahydro-[1,1′-biphenyl]-2-yl)methyl)piperazin-1-yl)benzoyl)sulfamoyl)-2-((trifluoromethyl)sulfonyl)phenyl)amino)-4-(phenylthio)butyl)piperidin-4-yl)methyl)(ethoxy)phosphoryl)oxy)methyl pivalate] was tested, and the EC50 [1] was < 1000 nM, the “SI (ratio of EC50 of non-senescent cells to EC50 of senescent cells)” value [1] was “A (10 or above)” and the Kd (BCL-xL) was < 1 nM. For the same compound, the Kd (BCL-2) was < 1 nM and the Kd (BCL-w) was 1 to 10 nM.
For COP(=O)(CN1CCN(CC[C@H](CSc2ccccc2)Nc2ccc(S(=O)(=O)NC(=O)c3ccc(N4CCN(CC5=C(c6ccc(Cl)cc6)CCC(C)(C)C5)CC4)cc3)cc2S(=O)(=O)C(F)(F)F)CC1)OC [Compound 16], the EC50 [1] was < 1000 nM, the “SI (ratio of EC50 of non-senescent cells to EC50 of senescent cells)” value [1] was “A (10 or above)” and the Kd (BCL-xL) was < 1 nM. For the same compound, the Kd (BCL-2) was < 1 nM and the Kd (BCL-w) was 1 to 10 nM.
For CCOP(=O)(CCN1CCN(CC(CSc2ccccc2)Nc2ccc(S(=O)(=O)NC(=O)c3ccc(N4CCN(CC5=C(c6ccc(Cl)cc6)CCC(C)(C)C5)CC4)cc3)cc2S(=O)(=O)C(F)(F)F)CC1)OCC (stereo not shown) [Compound 35, Diethyl (2-(4-(2-((4-(N-(4-(4-((4′-chloro-4,4-dimethyl-3,4,5,6-tetrahydro-[1,1′-biphenyl]-2-yl)methyl)piperazin-1-yl)benzoyl)sulfamoyl)-2-((trifluoromethyl)sulfonyl)phenyl)amino)-3-(phenylthio)propyl)piperazin-1-yl)ethyl)phosphonate], the EC50 [1] was 1000 to 10000 nM, the “SI (ratio of EC50 of non-senescent cells to EC50 of senescent cells)” value [1] was “C (2 or less)” and the Kd (BCL-xL) was 1 to 10 nM. The Kd (BCL-2) was < 1 nM and the Kd (BCL-w) was > 50 nM.
For CCOP(=O)(CN1CCN(CC[C@H](CSc2ccccc2)Nc2ccc(S(=O)(=O)NC(=O)c3ccc(N4CCN(CC5=C(c6ccc(Cl)cc6)CCC(C)(C)C5)CC4)cc3)cc2S(=O)(=O)C(F)(F)F)CC1)OCOC(=O)OC(C)C (stereo partly drawn) [Compound 39, [[4-[(3R)-3-[4-[[4-[4-[[2-(4-Chlorophenyl)-5,5-dimethyl-cyclohexen-1-yl]methyl]piperazin-1-yl]benzoyl]sulfamoyl]-2-(trifluoromethylsulfonyl)anilino]-4-phenylsulfanyl-butyl]piperazin-1-yl]methyl-ethoxy-phosphoryl]oxymethyl isopropyl carbonate], the EC50 [1] was < 1000 nM, the “SI (ratio of EC50 of non-senescent cells to EC50 of senescent cells)” value [1] was “A (10 or above)” and the Kd (BCL-xL) was < 1 nM. For the same compound, the Kd (BCL-2) was < 1 nM and the Kd (BCL-w) was 10 to 50 nM.
With CCOP(=O)(O)CCN1CCN(CC[C@H](CSc2ccccc2)Nc2ccc(S(=O)(=O)NC(=O)c3ccc(N4CCN(CC5=C(c6ccc(Cl)cc6)CCC(C)(C)C5)CC4)cc3)cc2S(=O)(=O)C(F)(F)F)CC1 [Compound 14] the EC50 [1] was > 10000 nM, the Kd (BCL-xL) was < 1 nM and the Kd (BCL-2) was < 1 nM. It also gave a Kd (BCL-w) of 1 to 10 nM.
With CCOP(=O)(O)CC1CCN(CC[C@H](CSc2ccccc2)Nc2ccc(S(=O)(=O)NC(=O)c3ccc(N4CCN(CC5=C(c6ccc(Cl)cc6)CCC(C)(C)C5)CC4)cc3)cc2S(=O)(=O)C(F)(F)F)CC1 [Compound 49, Ethylhydrogen((1-((R)-3-((4-(N-(4-(4-((4′-chloro-4,4-dimethyl-3,4,5,6-tetrahydro-[1,1′-biphenyl]-2-yl)methyl)piperazin-1-yl)benzoyl)sulfamoyl)-2-((trifluoromethyl)sulfonyl)phenyl)amino)-4-(phenylthio)butyl)piperidin-4-yl)methyl)phosphonate] the Kd (BCL-xL) was < 1 nM, the Kd (BCL-2) was < 1 nM and the Kd (BCL-w) was 1 to 10 nM.
